What was measured:
Assay in all cases: Post-emergence test experiment (Table 3, 1000 g/ha)
Assay type in all cases: in vivo
Settings in all cases: post-emergence spray, after 3 weeks, fresh weight inhibition
[1] = tested on: Abutilon theophrasti
Procedure, shortened: (§1)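 Weed seeds sown in soil-filled pots in greenhouse, sprayed at 2-3 leaf stage (2 weeks after sowing) with compound in acetone/tween-80 plus methyl oleate emulsible concentrate (1.5 L/ha) diluted in water. Fresh-weight growth inhibition scored after 3 weeks on 0-5 scale (5: >85%, 0: <5%).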

[2] = tested on: Digitaria sanguinalis
Procedure, shortened: as §1

[3] = tested on: Galium spurium
Procedure, shortened: as §1

[4] = tested on: Leptochloa chinensis
Procedure, shortened: as §1

[5] = tested on: Monochoria vaginalis
Procedure, shortened: as §1

[6] = tested on: Setaria viridis
Procedure, shortened: as §1

Compound | Activity level (growth inhibition rate) Abutilon theophrasti [1] | Activity level (growth inhibition rate) Digitaria sanguinalis [2] | Activity level (growth inhibition rate) Galium spurium [3] | Activity level (growth inhibition rate) Leptochloa chinensis [4] | Activity level (growth inhibition rate) Monochoria Vaginalis [5] | Activity level (growth inhibition rate) Setaria viridis [6]
CCOCSC(=O)C(C)Oc1nc(F)c(Cl)c(N)c1Cl (stereo not drawn) [Compound 86] | 5 (Level 5: the growth inhibition rate is greater than 85%) | 5 (Level 5: the growth inhibition rate is greater than 85%) | 5 (Level 5: the growth inhibition rate is greater than 85%) | 5 (Level 5: the growth inhibition rate is greater than 85%) | 5 (Level 5: the growth inhibition rate is greater than 85%) | 5 (Level 5: the growth inhibition rate is greater than 85%)
CC(C)SC(=O)C(C)Oc1nc(F)c(Cl)c(N)c1Cl (stereo not drawn) [Compound 68] | 5 (Level 5: the growth inhibition rate is greater than 85%) | 5 (Level 5: the growth inhibition rate is greater than 85%) | 5 (Level 5: the growth inhibition rate is greater than 85%) | 5 (Level 5: the growth inhibition rate is greater than 85%) | 5 (Level 5: the growth inhibition rate is greater than 85%) | 5 (Level 5: the growth inhibition rate is greater than 85%)
CSC(=O)C(C)Oc1nc(F)c(Cl)c(NC(C)=O)c1Cl (stereo not drawn) [Compound 129] | 5 (Level 5: the growth inhibition rate is greater than 85%) | 5 (Level 5: the growth inhibition rate is greater than 85%) | 5 (Level 5: the growth inhibition rate is greater than 85%) | 5 (Level 5: the growth inhibition rate is greater than 85%) | 5 (Level 5: the growth inhibition rate is greater than 85%) | 5 (Level 5: the growth inhibition rate is greater than 85%)
CSC(=O)C(C)Oc1nc(F)c(Cl)c(N)c1C1CC1 (stereo not drawn) [Compound 22] | 5 (Level 5: the growth inhibition rate is greater than 85%) | 5 (Level 5: the growth inhibition rate is greater than 85%) | 5 (Level 5: the growth inhibition rate is greater than 85%) | 5 (Level 5: the growth inhibition rate is greater than 85%) | 5 (Level 5: the growth inhibition rate is greater than 85%) | 5 (Level 5: the growth inhibition rate is greater than 85%)
CSC(=O)C(C)Oc1nc(F)c(Cl)c(N)c1C (stereo not drawn) [Compound 20] | 5 (Level 5: the growth inhibition rate is greater than 85%) | 5 (Level 5: the growth inhibition rate is greater than 85%) | 5 (Level 5: the growth inhibition rate is greater than 85%) | 5 (Level 5: the growth inhibition rate is greater than 85%) | 5 (Level 5: the growth inhibition rate is greater than 85%) | 5 (Level 5: the growth inhibition rate is greater than 85%)
CSC(=O)C(C)Oc1nc(F)c(Cl)c(NC(=O)c2ccccc2)c1Cl (stereo not drawn) [Compound 131] | 5 (Level 5: the growth inhibition rate is greater than 85%) | 5 (Level 5: the growth inhibition rate is greater than 85%) | 5 (Level 5: the growth inhibition rate is greater than 85%) | 5 (Level 5: the growth inhibition rate is greater than 85%) | 5 (Level 5: the growth inhibition rate is greater than 85%) | 5 (Level 5: the growth inhibition rate is greater than 85%)
CC(Oc1nc(F)c(Cl)c(N)c1Cl)C(=O)Sc1ccc2ccccc2c1 (stereo not drawn) [Compound 114] | 5 (Level 5: the growth inhibition rate is greater than 85%) | 5 (Level 5: the growth inhibition rate is greater than 85%) | 5 (Level 5: the growth inhibition rate is greater than 85%) | 5 (Level 5: the growth inhibition rate is greater than 85%) | 5 (Level 5: the growth inhibition rate is greater than 85%) | 5 (Level 5: the growth inhibition rate is greater than 85%)
Cc1ccccc1SC(=O)C(C)Oc1nc(F)c(Cl)c(N)c1Cl (stereo not drawn) [Compound 108] | 5 (Level 5: the growth inhibition rate is greater than 85%) | 5 (Level 5: the growth inhibition rate is greater than 85%) | 5 (Level 5: the growth inhibition rate is greater than 85%) | 5 (Level 5: the growth inhibition rate is greater than 85%) | 5 (Level 5: the growth inhibition rate is greater than 85%) | 5 (Level 5: the growth inhibition rate is greater than 85%)
CCCCCSC(=O)C(C)Oc1nc(F)c(Cl)c(N)c1Cl (stereo not drawn) [Compound 71] | 5 (Level 5: the growth inhibition rate is greater than 85%) | 5 (Level 5: the growth inhibition rate is greater than 85%) | 5 (Level 5: the growth inhibition rate is greater than 85%) | 5 (Level 5: the growth inhibition rate is greater than 85%) | 5 (Level 5: the growth inhibition rate is greater than 85%) | 5 (Level 5: the growth inhibition rate is greater than 85%)
CCCCCCCCCSC(=O)C(C)Oc1nc(F)c(Cl)c(N)c1Cl (stereo not drawn) [Compound 140] | 5 (Level 5: the growth inhibition rate is greater than 85%) | 5 (Level 5: the growth inhibition rate is greater than 85%) | 5 (Level 5: the growth inhibition rate is greater than 85%) | 5 (Level 5: the growth inhibition rate is greater than 85%) | 5 (Level 5: the growth inhibition rate is greater than 85%) | 5 (Level 5: the growth inhibition rate is greater than 85%)
CSC(=O)C(C)Oc1nc(F)c(Br)c(N)c1Br (stereo not drawn) [Compound 12] | 5 (Level 5: the growth inhibition rate is greater than 85%) | 5 (Level 5: the growth inhibition rate is greater than 85%) | 5 (Level 5: the growth inhibition rate is greater than 85%) | 5 (Level 5: the growth inhibition rate is greater than 85%) | 5 (Level 5: the growth inhibition rate is greater than 85%) | 5 (Level 5: the growth inhibition rate is greater than 85%)

Source: US12391648B2, “Pyridyloxy thioester derivative and preparation method therefor, herbicidal composition, and application” (Qingdao Kingagroot Chemical Compound Co., Ltd., priority 2018, dated 2025)
